pIC50: −log10 of the molar value.

Human B0AT1, sequence (Q695T7 whole entry): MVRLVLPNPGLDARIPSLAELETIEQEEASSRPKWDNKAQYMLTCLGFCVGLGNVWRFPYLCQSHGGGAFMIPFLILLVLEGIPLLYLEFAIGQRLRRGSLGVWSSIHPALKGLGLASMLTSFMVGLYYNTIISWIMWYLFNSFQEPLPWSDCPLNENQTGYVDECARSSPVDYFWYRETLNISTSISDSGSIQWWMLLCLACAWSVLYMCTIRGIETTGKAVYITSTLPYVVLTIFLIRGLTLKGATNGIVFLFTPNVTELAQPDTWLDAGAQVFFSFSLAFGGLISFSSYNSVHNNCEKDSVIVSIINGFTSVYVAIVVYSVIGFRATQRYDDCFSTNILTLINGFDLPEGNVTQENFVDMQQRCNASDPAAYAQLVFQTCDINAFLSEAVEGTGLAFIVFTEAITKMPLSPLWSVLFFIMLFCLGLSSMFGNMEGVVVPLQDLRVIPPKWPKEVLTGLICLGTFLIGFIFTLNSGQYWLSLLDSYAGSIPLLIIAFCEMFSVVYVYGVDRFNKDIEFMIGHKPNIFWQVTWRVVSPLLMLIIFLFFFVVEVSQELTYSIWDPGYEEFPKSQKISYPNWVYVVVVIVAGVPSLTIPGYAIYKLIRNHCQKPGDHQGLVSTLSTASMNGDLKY

This test has as its target Human B0AT1 (Homo sapiens (Human), UniProt Q695T7). The experiment in a line: hB0AT1 inhibitory test (phenylalanine uptake). In kind it is cell-based. As to conditions: Human B0AT1 stable expression CHO cells; [3H]-L-phenylalanine uptake, phenylalanine 0.25 mM. The method, boiled down:
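CHO cells stably expressing human B0AT1, in sodium-containing HEPES buffer with 0.01% BSA, preincubated with compound (0.5% DMSO) 30 min or longer at ambient temperature. Uptake of [3H]-L-phenylalanine (0.25 mM final) read by scintillation, analysed at 100-200 min; non-specific uptake from […] N-(4-bromophenyl)-3,5-dichloro-2-hydroxybenzamide, IC50 by logistic nonlinear regression.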
`CC1CN(C(=O)CNC(=O)/C=C/c2ccc(C(F)(F)F)cc2)Cc2ccccc21` (centres unmarked) [I-182]: the pIC50 is 6.77.
Next, `O=C(/C=C/c1ccc(C(F)(F)F)cc1)NCC(=O)N1Cc2ccccc2C(c2ccccc2)C1` (centres unmarked) [I-183]: 7.10; `Cc1cc2n(n1)CCCN2C(=O)CNC(=O)/C=C/c1ccc(C(F)(F)F)cc1` [I-184]: 7.33; `O=C(/C=C/c1ccc(C(F)(F)F)cc1)NCC(=O)N1CCCc2ncccc21` [I-185]: 7.51.
As for `O=C(/C=C/c1ccc(C(F)(F)F)cc1)NCC(=O)N1CCCc2cnccc21` [I-186], the figure is 8.00.
As for `CC1CCN(C(=O)CNC(=O)/C=C/c2ccc(C(F)(F)F)cc2)c2ccnn21` (centres unmarked) [I-187], the figure is 7.59; as for `CS(=O)(=O)Nc1ccc2c(c1)CCN(C(=O)CNC(=O)/C=C/c1ccc(C(F)(F)F)cc1)C2` [I-188], 7.47; as for `NS(=O)(=O)c1ccc2c(c1)CN(C(=O)CNC(=O)/C=C/c1ccc(C(F)(F)F)cc1)CC2` [I-189], 7.46.
In turn, `N#Cc1cnn2c1CN(C(=O)CNC(=O)/C=C/c1ccc(C(F)(F)F)cc1)CC2` [I-190] had a pIC50 of 7.68.
Next, `O=C(/C=C/c1ccc(C(F)(F)F)cc1)NCC(=O)N1CCc2cccc(C(F)(F)F)c2C1` [I-191]: 7.51; `N#Cc1cccc2c1CCN(C(=O)CNC(=O)/C=C/c1ccc(C(F)(F)F)cc1)C2` [I-192]: 7.52.
For `Cc1cccc2c1CN(C(=O)CNC(=O)/C=C/c1ccc(C(F)(F)F)cc1)CC2` [I-193], the pIC50 was 7.30.
In the case of `O=C(/C=C/c1ccc(C(F)(F)F)cc1)NCC(=O)N1CCc2c(cccc2C(F)(F)F)C1` [I-194], the pIC50 is 6.85.
Next, `O=C(/C=C/c1ccc(C(F)(F)F)cc1)NCC(=O)N1CCc2ccc(Br)cc2C1` [I-195]: 7.27; `O=C(/C=C/c1ccc(C(F)(F)F)cc1)NCC(=O)N1CCc2cccc(Br)c2C1` [I-196]: 7.77; `N#Cc1ccc2c(c1)CN(C(=O)CNC(=O)/C=C/c1ccc(C(F)(F)F)cc1)CC2` [I-197]: 7.60.
As for `O=C(/C=C/c1ccc(C(F)(F)F)cc1)NCC(=O)N1CCn2ncc(Cl)c2C1` [I-202], the figure is 7.66; as for `CNC(=O)c1cc2n(n1)CCN(C(=O)CNC(=O)/C=C/c1ccc(C(F)(F)F)cc1)C2` [I-203], 7.35; as for `C[C@@H]1c2ncnn2CCN1C(=O)CNC(=O)/C=C/c1ccc(C(F)(F)F)cc1` [I-204], 6.09.
Compound `CNC(=O)c1nc2n(n1)CCN(C(=O)CNC(=O)/C=C/c1ccc(C(F)(F)F)cc1)C2` [I-205] gave a negative logarithm of the IC50 (pIC50) of 7.06.
Next, `CN(C)C(=O)c1nc2n(n1)CCN(C(=O)CNC(=O)/C=C/c1ccc(C(F)(F)F)cc1)C2` [I-206]: 7.11; `O=C(/C=C/c1ccc(C(F)(F)F)cc1)NCC(=O)N1CCn2ncnc2C12CC2` [I-207]: 6.49; `CC(O)c1cc2n(n1)CCN(C(=O)CNC(=O)/C=C/c1ccc(C(F)(F)F)cc1)C2` (centres unmarked) [I-208]: 7.30.
As for `Cc1nnc(CN(CC2(F)CC2)C(=O)CNC(=O)/C=C/c2ccc(C(F)(F)F)cc2)o1` [I-209], the figure is 7.49; as for `COCC(C)N(Cc1nnc(C)o1)C(=O)CNC(=O)/C=C/c1ccc(C(F)(F)F)cc1` (centres unmarked) [I-210], 6.78; as for `CCc1nnc(CN(CC2(F)CC2)C(=O)CNC(=O)/C=C/c2ccc(C(F)(F)F)cc2)o1` [I-211], 7.21.
As for `Cc1nnc(CN(CC2(F)CCC2)C(=O)CNC(=O)/C=C/c2ccc(C(F)(F)F)cc2)o1` [I-212], the figure is 7.37; as for `O=C(/C=C/c1ccc(C(F)(F)F)cc1)NCC(=O)N1CC[C@H](Cn2cccn2)C1` [I-213], 6.97; as for `O=C(/C=C/c1ccc(C(F)(F)F)cc1)NCC(=O)N1CC[C@@H](Cn2cccn2)C1` [I-214], 6.14.
`CNC(=O)[C@H]1C[C@H](n2cccn2)CN1C(=O)CNC(=O)/C=C/c1ccc(C(F)(F)F)cc1` [I-215] gave a pIC50 of 6.33.
As for `CNC(=O)[C@@H]1C[C@H](n2cccn2)CN1C(=O)CNC(=O)/C=C/c1ccc(C(F)(F)F)cc1` [I-216], the figure is 6.79; as for `COC1CN(C(=O)CNC(=O)/C=C/c2ccc(C(F)(F)F)cc2)Cc2ccc(Br)cc21` (centres unmarked) [I-217], 6.94.
As for `CCC1Cn2ncnc2CN1C(=O)CNC(=O)/C=C/c1ccc(C(F)(F)F)cc1` (centres unmarked) [I-218], the figure is 6.45; as for `COCC1Cn2ncnc2CN1C(=O)CNC(=O)/C=C/c1ccc(C(F)(F)F)cc1` (centres unmarked) [I-219], 6.58; as for `NS(=O)(=O)c1ccc2c(c1)CCN(C(=O)CNC(=O)/C=C/c1ccc(C(F)(F)F)cc1)C2` [I-220], 7.37.
As for `CNS(=O)(=O)c1ccc2c(c1)CCN(C(=O)CNC(=O)/C=C/c1ccc(C(F)(F)F)cc1)C2` [I-221], the figure is 7.36; as for `O=C(/C=C/c1ccc(C(F)(F)F)cc1)NCC(=O)N1CCn2ncc(C(=O)N3CCCC3)c2C1` [I-222], 7.48; as for `CCN(CC)C(=O)c1cnn2c1CN(C(=O)CNC(=O)/C=C/c1ccc(C(F)(F)F)cc1)CC2` [I-223], 7.39.
The compound `NC(=O)c1cnn2c1CN(C(=O)CNC(=O)/C=C/c1ccc(C(F)(F)F)cc1)CC2` [I-224] had a pIC50 of 7.36.
Next, `CNC(=O)c1cnn2c1CN(C(=O)CNC(=O)/C=C/c1ccc(C(F)(F)F)cc1)CC2` [I-225]: 7.36; `CN(C)C(=O)c1cnn2c1CN(C(=O)CNC(=O)/C=C/c1ccc(C(F)(F)F)cc1)CC2` [I-226]: 7.17; `O=C(/C=C/c1ccc(C(F)(F)F)cc1F)NCC(=O)N1CCc2cc(Br)cc(F)c2C1` [I-236]: 7.47.
Turning to `O=C(/C=C/c1ccc(C(F)(F)F)cc1)NCC(=O)N1CCc2cc(Br)ccc21` [I-260], the pIC50 is 7.62.
Next, `O=C(/C=C/c1ccc(C(F)(F)F)cc1)NCC(=O)N1CCc2c(ccc(C(=O)O)c2F)C1` [I-261, 5-fluoro-2-[2-[[(E)-3-[4-(trifluoromethyl)phenyl]prop-2-enoyl]amino]acetyl]-3,4-dihydro-1H-isoquinoline-6-carboxylic acid]: 6.65; `O=C(/C=C/c1ccc(C(F)(F)F)cc1)NCC(=O)N1CCc2cc(C(=O)O)c(F)cc2C1` [I-262]: 6.36.
Next, `O=C(/C=C/c1ccc(C(F)(F)F)cc1)NCC(=O)N1CCc2nc(C(=O)O)ccc2C1` [I-263]: 6.70.
Turning to `O=C(/C=C/c1ccc(C(F)(F)F)cc1)NCC(=O)N1CCc2cc(C(=O)O)ncc2C1` [I-264], the pIC50 is 7.26.
As for `O=C(/C=C/c1ccc(C(F)(F)F)cc1)NCC(=O)N1CCn2nc(C(=O)O)c(-c3ccc(C(F)(F)F)cc3)c2C1` [I-265], the figure is 7.18; as for `O=C(/C=C/c1ccc(C(F)(F)F)cc1)NCC(=O)N1CCn2nc(C(=O)O)c(C3CCCCC3)c2C1` [I-266], 6.88.
As for `O=C(/C=C/c1ccc(C(F)(F)F)cc1)NCC(=O)N1CCn2nc(C(=O)O)c(-c3ccc(F)cc3)c2C1` [I-267], the figure is 7.08; as for `O=C(/C=C/c1ccc(C(F)(F)F)cc1)NCC(=O)N1CCn2nc(C(=O)O)c(C3CC3)c2C1` [I-268], 7.10; as for `O=C(/C=C/c1ccc(C(F)(F)F)cc1)NCC(=O)N1CCn2nc(C(=O)O)c(Br)c2C1` [I-269], 6.84.
Next, `O=C(/C=C/c1ccc(C(F)(F)F)cc1)NCC(=O)N1CCc2ccc(C(=O)O)cc2C1` [I-270]: 6.77; `O=C(/C=C/c1ccc(C(F)(F)F)cc1)NCC(=O)N1CCc2c(cccc2C(=O)O)C1` [I-271]: 6.16; `O=C(/C=C/c1ccc(S(F)(F)(F)(F)F)cc1)NCC(=O)N1CCn2nc(C(=O)O)cc2C1` [I-272]: 6.85.
`O=C(/C=C/c1ccc(C(F)(F)F)cc1)NCC(=O)N1CCn2nc(C(=O)O)cc2C1` [I-273] showed a pIC50 of 6.90.
As for `O=C(/C=C/c1ccc(C(F)(F)F)cc1)NCC(=O)N1CCn2ncc(C(=O)O)c2C1` [I-274], the figure is 6.27; as for `O=C(/C=C/c1ccc(S(F)(F)(F)(F)F)cc1)NCC(=O)N1CCc2cc(C(=O)O)ccc2C1` [I-276, 2-[2-[[(E)-3-[4-(pentafluoro-A6-sulfanyl)phenyl]prop-2-enoyl]amino]acetyl]-3,4-dihydro-1H-isoquinoline-6-carboxylic acid], 7.06.
For `O=C(/C=C/c1ccc(C(F)(F)F)cc1)NCC(=O)N1CCc2cc(C(=O)O)ccc2C1` [I-277], the pIC50 was 6.84.
As for `CC(C)CNC(=O)C1CN(C(=O)CNC(=O)/C=C/c2ccc(C(F)(F)F)cc2)Cc2ccccc21` (centres unmarked) [I-278, N-(2-methylpropyl)-2-[2-[[(E)-3-[4-(trifluoromethyl)phenyl]prop-2-enoyl]amino]acetyl]-3,4-dihydro-1H-isoquinoline-4-carboxamide], the figure is 7.06; as for `CNC(=O)c1nn2c(c1Br)CN(C(=O)CNC(=O)/C=C/c1ccc(C(F)(F)F)cc1)CC2` [I-279], 7.15; as for `O=C(/C=C/c1ccc(C(F)(F)F)cc1)NCC(=O)N1CCn2ncc(C(=O)N3CCC(F)(F)C3)c2C1` [I-280], 7.31.
Next, `NC(=O)c1ccc2c(c1)CCN(C(=O)CNC(=O)/C=C/c1ccc(C(F)(F)F)cc1)C2` [I-281]: 7.68; `O=C(/C=C/c1ccc(C(F)(F)F)cc1)NCC(=O)N1CCn2nc(C(F)F)cc2C1` [I-282, (E)-N-[2-[2-(difluoromethyl)-6,7-dihydro-4H-pyrazolo [1,5-a]pyrazin-5-yl]-2-oxoethyl]-3-[4-(trifluoromethyl)phenyl]prop-2-enamide]: 7.59; `O=C(/C=C/c1ccc(C(F)(F)F)cc1)NCC(=O)N1Cc2ccnn2C[C@@H]1C(=O)O` [I-283, (6R)-5-[2-[[(E)-3-[4-(trifluoromethyl)phenyl]prop-2-enoyl]amino]acetyl]-6,7-dihydro-4H-pyrazolo[1,5-a]pyrazine-6-carboxylic acid]: 6.44.

These data come from patent publication US20250170126A1 (MITSUBISHI TANABE PHARMA CORPORATION, priority 2022, published 2025).
